Test results reported in PMC7497412 (RSC Advances, 2020).
Converted amounts (≈) assume the structure as drawn.

What was measured:
Test in all cases: microbe, parasite or virus in culture
Format in all cases: cell-based
[1] = test system: M. tb KZN494/MDR; details: Mycobacterium tuberculosis, read-out: M. tb MIC KZN494/MDR
[2] = test system: M. tb TF274/XDR; details: Mycobacterium tuberculosis, read-out: M. tb MIC TF274/XDR
[3] = test system: M. tb V2475/MDR; details: Mycobacterium tuberculosis, read-out: M. tb MIC V2475/MDR
[4] = test system: M. tb R506/XDR; details: Mycobacterium tuberculosis, read-out: M. tb MIC R506/XDR

| SMILES | MIC [1] | MIC [2] | MIC [3] | MIC [4] |
| --- | --- | --- | --- | --- |
| O=C(NC12CC3CC(CC(C3)C1)C2)c1ccc2ccccc2c1 [13d, N-(1-Adamantanyl)-2-naphthamide] | 6.55 to 13.1 µM (≈ 2 to 4 µg/mL) | 3.27 µM (≈ 0.999 µg/mL) | 6.55 µM (≈ 2 µg/mL) | 3.27 µM (≈ 0.999 µg/mL) |
| O=C(NC12CC3CC(CC(C3)C1)C2)c1cc(=O)c2c(Br)cccc2[nH]1 [8i, N-(1-Adamantanyl)-5-bromo-4-oxo-1,4-dihydroquinoline-2-carboxamide] | 9.97 µM (≈ 4 µg/mL) | 4.98 µM (≈ 2 µg/mL) | 9.97 µM (≈ 4 µg/mL) | 4.98 µM (≈ 2 µg/mL) |
| O=C(Nc1nc(-c2ccc(Cl)cc2Cl)cs1)C12CC3CC(CC(C3)C1)C2 [18b, N-(4-(2,4-Dichlorophenyl)thiazol-2-yl)adamantane-1-carboxamide] | 9.82 µM (≈ 4 µg/mL) | 4.91 µM (≈ 2 µg/mL) | 19.6 µM (≈ 8 µg/mL) | 4.91 to 9.82 µM (≈ 2 to 4 µg/mL) |
| O=C(NC1CCCCCCC1)c1ccc2ccccc2c1 [13c, N-Cyclooctyl-2-naphthamide] | 7.11 µM (≈ 2 µg/mL) | 3.55 µM (≈ 0.999 µg/mL) | 7.11 µM (≈ 2 µg/mL) | 3.55 µM (≈ 0.999 µg/mL) |
